Reference: US9777005B2 (Takeda Pharmaceutical Company Limited, priority 2012, dated 2017)

Biological target: T1, human M1 receptor (hCHRM1) (Homo sapiens, UniProt P11229)
T1 construct: expressed in transfected cells; host or cells: CHO-K1
T1 sequence (P11229 1-460): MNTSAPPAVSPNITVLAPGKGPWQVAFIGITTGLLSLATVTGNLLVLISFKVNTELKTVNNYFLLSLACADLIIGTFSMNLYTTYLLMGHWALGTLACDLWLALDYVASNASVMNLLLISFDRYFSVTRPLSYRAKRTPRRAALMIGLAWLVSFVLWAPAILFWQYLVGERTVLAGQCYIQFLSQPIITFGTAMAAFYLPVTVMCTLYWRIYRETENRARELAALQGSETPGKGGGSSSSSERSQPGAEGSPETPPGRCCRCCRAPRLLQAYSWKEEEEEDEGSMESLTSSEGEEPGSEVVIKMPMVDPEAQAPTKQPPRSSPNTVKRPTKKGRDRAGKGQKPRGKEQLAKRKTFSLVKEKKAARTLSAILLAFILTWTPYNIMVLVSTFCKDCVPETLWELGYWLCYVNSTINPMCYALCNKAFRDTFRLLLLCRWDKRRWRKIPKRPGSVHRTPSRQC
Assay: Measurement of M1 receptor positive allosteric modulator (M1PAM) activity, calcium fluorescence (FLIPRtetra) in CHO-K1 cells in the presence of acetylcholine at EC20
Type: cell-based
Conditions: in the presence of acetylcholine at EC20 (final 0.6 nM), CHO-K1 cells expressing hCHRM1; for EC50: inflection point of M1PAM activity, read-out: IP value; for activity (%) at 10 μM: test compound 10 μM
Procedure, shortened: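 CHO-K1 cells expressing human M1 were loaded with Fluo-4 AM, and compound was added with acetylcholine at EC20 (final 0.6 nM). Calcium fluorescence was read on FLIPRtetra for 1 min. Activity was normalized to 1 μM acetylcholine (100%) and DMSO (0%), and the curve inflection point was reported as IP.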

EC50 | activity (%) at 10 μM | Structure (SMILES)
26 nM | 107% | NC(=O)c1ccc(CN2Cc3ccnc(Oc4ccc(C5CC5)cc4F)c3C2=O)cc1F [Example 446, 4-((4-(4-cyclopropyl-2-fluorophenoxy)-3-oxo-1,3-dihydro-2H-pyrrolo[3,4-c]pyridin-2-yl)methyl)-2-fluorobenzamide]
5.2 nM | 93% | CNC(=O)c1ccc(CN2Cc3ccnc(Oc4ccc(C5CC5)cc4F)c3C2=O)cc1 [Example 447, 4-((4-(4-cyclopropyl-2-fluorophenoxy)-3-oxo-1,3-dihydro-2H-pyrrolo[3,4-c]pyridin-2-yl)methyl)-N-methylbenzamide]
6.1 nM | 102% | NC(=O)c1ccc(CN2Cc3ccnc(Oc4ccc(C5CC5)cc4F)c3C2=O)cc1 [Example 448, 4-((4-(4-cyclopropyl-2-fluorophenoxy)-3-oxo-1,3-dihydro-2H-pyrrolo[3,4-c]pyridin-2-yl)methyl)benzamide]
9.3 nM | 99% | CCc1ccc(Oc2nccc3c2C(=O)N(Cc2ccc(C(N)=O)cc2)C3)c(F)c1 [Example 449, 4-((4-(4-ethyl-2-fluorophenoxy)-3-oxo-1,3-dihydro-2H-pyrrolo[3,4-c]pyridin-2-yl)methyl)benzamide]
10 nM | 102% | CCCc1ccc(Oc2nccc3c2C(=O)N(Cc2ccc(C(N)=O)cc2)C3)c(F)c1 [Example 450, 4-((4-(2-fluoro-4-propylphenoxy)-3-oxo-1,3-dihydro-2H-pyrrolo[3,4-c]pyridin-2-yl)methyl)benzamide]
11 nM | 105% | CCCc1ccc(Oc2nccc3c2C(=O)N(Cc2ccc(C(=O)NC)cc2)C3)c(F)c1 [Example 451, 4-((4-(2-fluoro-4-propylphenoxy)-3-oxo-1,3-dihydro-2H-pyrrolo[3,4-c]pyridin-2-yl)methyl)-N-methylbenzamide]
45 nM | 102% | CCCc1ccc(Oc2nccc3c2C(=O)N(Cc2ccc(C(N)=O)c(F)c2)C3)c(F)c1 [Example 452, 2-fluoro-4-((4-(2-fluoro-4-propylphenoxy)-3-oxo-1,3-dihydro-2H-pyrrolo[3,4-c]pyridin-2-yl)methyl)benzamide]
56 nM | 97% | CCc1ccc(Oc2nccc3c2C(=O)N(Cc2ccc(C(=O)NC)nc2)C3)c(F)c1 [Example 453, 5-((4-(4-ethyl-2-fluorophenoxy)-3-oxo-1,3-dihydro-2H-pyrrolo[3,4-c]pyridin-2-yl)methyl)-N-methylpyridine-2-carboxamide]
30 nM | 86% | CNC(=O)c1ccc(CN2Cc3ccnc(Oc4ccc(C5CC5)cc4F)c3C2=O)cn1 [Example 454, 5-((4-(4-cyclopropyl-2-fluorophenoxy)-3-oxo-1,3-dihydro-2H-pyrrolo[3,4-c]pyridin-2-yl)methyl)-N-methylpyridine-2-carboxamide]
60 nM | 86% | CCCc1ccc(Oc2nccc3c2C(=O)N(Cc2ccc(C(=O)NC)nc2)C3)c(F)c1 [Example 455, 5-((4-(2-fluoro-4-propylphenoxy)-3-oxo-1,3-dihydro-2H-pyrrolo[3,4-c]pyridin-2-yl)methyl)-N-methylpyridine-2-carboxamide]
46 nM | 91% | CNC(=O)c1ccc(CN2Cc3ccnc(Oc4ccc(C(F)(F)F)cc4F)c3C2=O)cn1 [Example 456, 5-((4-(2-fluoro-4-(trifluoromethyl)phenoxy)-3-oxo-1,3-dihydro-2H-pyrrolo[3,4-c]pyridin-2-yl)methyl)-N-methylpyridine-2-carboxamide]
8.6 nM | 91% | CNC(=O)c1ccc(CN2Cc3ccnc(Oc4ccc(CC(F)(F)F)cc4F)c3C2=O)cc1 [Example 457, 4-((4-(2-fluoro-4-(2,2,2-trifluoroethyl)phenoxy)-3-oxo-1,3-dihydro-2H-pyrrolo[3,4-c]pyridin-2-yl)methyl)-N-methylbenzamide]
12 nM | 93% | NC(=O)c1ccc(CN2Cc3ccnc(Oc4ccc(CC(F)(F)F)cc4F)c3C2=O)cc1 [Example 458, 4-((4-(2-fluoro-4-(2,2,2-trifluoroethyl)phenoxy)-3-oxo-1,3-dihydro-2H-pyrrolo[3,4-c]pyridin-2-yl)methyl)benzamide]
32 nM | 93% | NC(=O)c1ccc(CN2Cc3ccnc(Oc4ccc(CC(F)(F)F)cc4F)c3C2=O)cc1F [Example 459, 2-fluoro-4-((4-(2-fluoro-4-(2,2,2-trifluoroethyl)phenoxy)-3-oxo-1,3-dihydro-2H-pyrrolo[3,4-c]pyridin-2-yl)methyl)benzamide]
17 nM | 96% | NC(=O)c1ccc(CN2Cc3cccc(Oc4ccc(C(F)(F)F)cc4F)c3C2=O)cc1 [Example 460, 4-((7-(2-fluoro-4-(trifluoromethyl)phenoxy)-1-oxo-1,3-dihydro-2H-isoindol-2-yl)methyl)benzamide]
50 nM | 95% | NC(=O)c1ccc(CN2Cc3cccc(Oc4ccc(C(F)(F)F)cc4F)c3C2=O)cc1F [Example 461, 2-fluoro-4-((7-(2-fluoro-4-(trifluoromethyl)phenoxy)-1-oxo-1,3-dihydro-2H-isoindol-2-yl)methyl)benzamide]
